Source: patent publication US7074789B2, “Kinase inhibitors” (Amgen Inc., priority 1999, dated 2006)

Key:
Format in all cases: biochemical
EGFR = target: T1, EGFR (Homo sapiens, UniProt P00533); experiment: Kinase inhibition assay (33P transfer), EGFR; settings: Table 2, kinase inhibition class; read-out: EGFR-1
T1 construct: Kinases are expressed as either kinase domains or full length constructs; made in house
How it was run: (§1)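 Radiometric format: recombinant tagged kinase (catalytic domain or whole protein, sometimes combined with regulatory polypeptides) phosphorylates immobilised poly(Glu,Tyr) 4:1 or poly(Arg,Ser) 3:1 using [33P]ATP. Wells are washed in 0.5% phosphoric acid, then counted. IC50 is taken where substrate labelling falls by half.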

Lck = target: T2, Lck (Homo sapiens, UniProt P06239); experiment: Kinase inhibition assay (33P transfer), Lck; settings: Table 3; read-out: Lck-1
T2 construct: Kinases are expressed as either kinase domains or full length constructs; made in house
How it was run: (§2)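 Liquid scintillation counting of 33P on plate-bound synthetic substrates gives kinase activity. Plates are washed in 0.5% phosphoric acid first; kinases are tagged recombinant proteins from E. coli or baculovirus-infected High Five cells.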

c-Met = target: T3, c-Met (Homo sapiens, UniProt P08581); experiment: Kinase inhibition assay (33P transfer), c-Met; settings: Table 2, kinase inhibition class; read-out: Met-1
T3 construct: Kinases are expressed as either kinase domains or full length constructs; made in house
How it was run: as §1

Tek = target: T4, Tek (Homo sapiens, UniProt Q02763); experiment: Kinase inhibition assay (33P transfer), Tek; settings: read-out: Tek-1
T4 construct: Kinases are expressed as either kinase domains or full length constructs; made in house
How it was run: as §1

Zap-70 = target: T5, Zap-70 (Homo sapiens, UniProt P43403); experiment: Kinase inhibition assay (33P transfer), Zap-70; settings: Table 3; read-out: Zap-1
T5 construct: Kinases are expressed as either kinase domains or full length constructs; made in house
T5 sequence (P43403 1-619): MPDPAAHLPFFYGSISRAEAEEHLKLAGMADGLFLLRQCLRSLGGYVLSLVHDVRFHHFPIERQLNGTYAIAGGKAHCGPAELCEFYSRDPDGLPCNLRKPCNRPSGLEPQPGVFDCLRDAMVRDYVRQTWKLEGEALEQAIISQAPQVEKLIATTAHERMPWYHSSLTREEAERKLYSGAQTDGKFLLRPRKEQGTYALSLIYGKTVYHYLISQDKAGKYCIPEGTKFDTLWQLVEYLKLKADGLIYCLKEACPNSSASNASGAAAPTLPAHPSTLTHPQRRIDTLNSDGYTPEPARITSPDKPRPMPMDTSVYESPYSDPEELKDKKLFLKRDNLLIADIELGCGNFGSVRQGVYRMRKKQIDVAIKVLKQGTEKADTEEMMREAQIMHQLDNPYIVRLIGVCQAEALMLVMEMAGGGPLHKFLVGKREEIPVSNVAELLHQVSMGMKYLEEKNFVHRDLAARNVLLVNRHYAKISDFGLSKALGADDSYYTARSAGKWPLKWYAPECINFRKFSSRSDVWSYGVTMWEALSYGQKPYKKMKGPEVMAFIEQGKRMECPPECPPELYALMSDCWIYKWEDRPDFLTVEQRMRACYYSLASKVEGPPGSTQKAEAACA
How it was run: as §2

Itk = target: T6, Itk (Homo sapiens, UniProt Q08881); experiment: Kinase inhibition assay (33P transfer), Itk; settings: Table 3; read-out: Itk-1
T6 construct: Kinases are expressed as either kinase domains or full length constructs; made in house
T6 sequence (Q08881 1-620): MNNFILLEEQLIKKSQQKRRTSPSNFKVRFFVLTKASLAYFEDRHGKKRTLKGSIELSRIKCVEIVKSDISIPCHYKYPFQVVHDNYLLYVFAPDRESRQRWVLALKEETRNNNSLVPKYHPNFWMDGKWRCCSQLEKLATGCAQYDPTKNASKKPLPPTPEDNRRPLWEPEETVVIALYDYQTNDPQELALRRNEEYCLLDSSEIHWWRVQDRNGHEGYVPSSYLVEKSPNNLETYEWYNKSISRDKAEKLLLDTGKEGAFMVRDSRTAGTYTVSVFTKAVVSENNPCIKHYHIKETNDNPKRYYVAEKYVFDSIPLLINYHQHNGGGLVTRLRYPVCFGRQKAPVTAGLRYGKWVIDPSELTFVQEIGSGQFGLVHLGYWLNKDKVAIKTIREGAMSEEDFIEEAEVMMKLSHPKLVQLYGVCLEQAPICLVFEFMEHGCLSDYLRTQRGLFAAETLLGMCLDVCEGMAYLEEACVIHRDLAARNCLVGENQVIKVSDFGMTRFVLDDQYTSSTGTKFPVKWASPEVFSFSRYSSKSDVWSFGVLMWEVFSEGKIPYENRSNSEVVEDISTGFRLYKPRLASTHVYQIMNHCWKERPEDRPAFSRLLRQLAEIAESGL
How it was run: as §1

Kdr = target: T7, Kdr (Homo sapiens, UniProt P35968); experiment: Kinase inhibition assay (33P transfer), Kdr; settings: Table 3; read-out: KDR-1
T7 construct: Kinases are expressed as either kinase domains or full length constructs; made in house
How it was run: as §2

PDGFRB = target: T8, PDGFRB (Homo sapiens, UniProt P09619); experiment: Kinase inhibition assay (33P transfer), PDGFRB; settings: read-out: PDGFRB-1
T8 construct: Kinases are expressed as either kinase domains or full length constructs; made in house

AKT = target: T9, AKT (Homo sapiens, UniProt Q9Y243); experiment: Kinase inhibition assay (33P transfer), AKT; settings: Table 2, kinase inhibition class; read-out: AKT3-1
T9 construct: Kinases are expressed as either kinase domains or full length constructs; made in house
How it was run: as §2

IGFR-1 = target: T10, IGFR-1 (Homo sapiens, UniProt P08069); experiment: Kinase inhibition assay (33P transfer), IGFR-1; settings: Table 2, kinase inhibition class
T10 construct: Kinases are expressed as either kinase domains or full length constructs; made in house

FGFR1 = target: T11, FGFR1 (Homo sapiens, UniProt P11362); experiment: Kinase inhibition assay (33P transfer), FGFR1; settings: read-out: FGFR1-1
T11 construct: Kinases are expressed as either kinase domains or full length constructs; made in house

Flt-1 = target: T12, Flt-1 (Homo sapiens, UniProt P17948); experiment: Kinase inhibition assay (33P transfer), Flt-1
T12 construct: Kinases are expressed as either kinase domains or full length constructs; made in house
From the text: (§3) The inhibitor compounds described herein are screened in the following manner. Kinases suitable for use in the following protocol to determine kinase activity of the compounds described herein include, -but are not limited to: Lck, Lyn, Src, Fyn, Syk, Zap-70, Itk, Tec, Btk, EGFR, ErbB2, Kdr, Flt-1, Flt-3, Tek, c-Met, InsR, and AKT.
(§4) Kinases are expressed as either kinase domains or full length constructs fused to glutathione S-transferase (GST) or polyHistidine tagged fusion proteins in either E. colior Baculovirus-High Five expression systems. They are purified to near homogeneity by affinity chromatography essentially as previously described (Lehr et al., 1996; Gish et al., 1995). In some instances, kinases are co-expressed or mixed with purified or partially purified regulatory polypeptides prior to measurement of activity.
(§5) Kinase activity and inhibition are measured essentially by established protocols (Braunwalder et al., 1996). Briefly, The transfer of ^33PO4 from ATP to the synthetic substrates poly(Glu, Tyr) 4:1 or poly(Arg, Ser) 3:1 attached to the bioactive surface of microtiter plates serves as the basis to evaluate enzyme activity. After an incubation period, the amount of phosphate transferred is measured by first washing the plate with 0.5% phosphoric acid, adding liquid scintillant, and then counting in a liquid scintillation detector. The IC50 is determined by the concentration of compound that causes a 50% reduction in the amount of […] incorporated onto the substrate bound to the plate.

Lyn = target: T13, Lyn (Homo sapiens, UniProt P07948); experiment: Kinase inhibition assay (33P transfer), Lyn; settings: Table 6, Lyn-1 kinase inhibition class
T13 construct: Kinases are expressed as either kinase domains or full length constructs; made in house
From the text: as §3, §4, §5

Hck-1 = target: T14, Hck-1 (Homo sapiens, UniProt P08631); experiment: Kinase inhibition assay (33P transfer), Hck; settings: Table 6, Hck-1 kinase inhibition class
T14 construct: Kinases are expressed as either kinase domains or full length constructs; made in house

ErbB4 = target: T15, ErbB4 (Homo sapiens, UniProt Q15303); experiment: Kinase inhibition assay (33P transfer), ErbB4; settings: read-out: ErbB4-1
T15 construct: Kinases are expressed as either kinase domains or full length constructs; made in house

Src = target: T16, Src (Homo sapiens, UniProt P12931); experiment: Kinase inhibition assay (33P transfer), Src; settings: Table 6, Src-1 kinase inhibition class
T16 construct: Kinases are expressed as either kinase domains or full length constructs; made in house
From the text: as §3, §4, §5

Fyn = target: T17, Fyn (Homo sapiens, UniProt P06241); experiment: Kinase inhibition assay (33P transfer), Fyn; settings: read-out: Fyn-1
T17 construct: Kinases are expressed as either kinase domains or full length constructs; made in house
From the text: as §3, §4, §5

T3 sequence (P08581 25-1390): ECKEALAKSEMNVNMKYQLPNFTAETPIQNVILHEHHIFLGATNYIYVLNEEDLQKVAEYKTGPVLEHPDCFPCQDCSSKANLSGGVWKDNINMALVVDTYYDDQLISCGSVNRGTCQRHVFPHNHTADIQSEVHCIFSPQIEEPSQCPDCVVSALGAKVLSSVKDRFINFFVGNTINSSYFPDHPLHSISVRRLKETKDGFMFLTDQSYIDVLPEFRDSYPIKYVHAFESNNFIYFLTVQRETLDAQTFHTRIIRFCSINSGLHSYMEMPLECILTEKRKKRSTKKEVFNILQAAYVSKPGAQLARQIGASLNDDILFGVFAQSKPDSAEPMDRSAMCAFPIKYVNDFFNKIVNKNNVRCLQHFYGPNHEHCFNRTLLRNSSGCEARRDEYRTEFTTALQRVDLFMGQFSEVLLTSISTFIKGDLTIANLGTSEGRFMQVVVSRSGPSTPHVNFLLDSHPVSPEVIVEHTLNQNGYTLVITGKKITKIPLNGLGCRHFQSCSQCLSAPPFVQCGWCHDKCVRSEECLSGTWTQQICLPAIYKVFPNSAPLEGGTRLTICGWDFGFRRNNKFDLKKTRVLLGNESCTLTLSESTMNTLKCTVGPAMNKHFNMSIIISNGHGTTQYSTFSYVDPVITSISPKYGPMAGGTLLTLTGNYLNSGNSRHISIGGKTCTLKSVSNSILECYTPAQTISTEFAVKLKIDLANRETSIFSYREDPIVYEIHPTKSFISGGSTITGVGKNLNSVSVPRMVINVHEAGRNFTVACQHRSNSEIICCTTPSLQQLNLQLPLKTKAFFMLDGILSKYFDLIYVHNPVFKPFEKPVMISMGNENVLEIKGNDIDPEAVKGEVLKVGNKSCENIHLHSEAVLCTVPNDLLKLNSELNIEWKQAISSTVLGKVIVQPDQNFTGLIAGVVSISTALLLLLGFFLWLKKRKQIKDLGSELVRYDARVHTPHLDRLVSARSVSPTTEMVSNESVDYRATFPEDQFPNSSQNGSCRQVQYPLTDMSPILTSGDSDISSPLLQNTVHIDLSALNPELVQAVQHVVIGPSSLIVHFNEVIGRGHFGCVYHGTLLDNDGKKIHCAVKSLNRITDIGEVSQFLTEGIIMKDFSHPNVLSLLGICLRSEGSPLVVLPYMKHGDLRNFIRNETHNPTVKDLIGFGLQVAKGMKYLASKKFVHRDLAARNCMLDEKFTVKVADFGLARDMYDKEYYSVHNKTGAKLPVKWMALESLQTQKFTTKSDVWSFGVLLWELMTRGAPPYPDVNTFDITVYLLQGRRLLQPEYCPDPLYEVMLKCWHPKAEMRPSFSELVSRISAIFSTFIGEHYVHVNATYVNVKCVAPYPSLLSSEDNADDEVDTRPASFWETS
T14 sequence (P08631 whole entry, the tested form may be a part): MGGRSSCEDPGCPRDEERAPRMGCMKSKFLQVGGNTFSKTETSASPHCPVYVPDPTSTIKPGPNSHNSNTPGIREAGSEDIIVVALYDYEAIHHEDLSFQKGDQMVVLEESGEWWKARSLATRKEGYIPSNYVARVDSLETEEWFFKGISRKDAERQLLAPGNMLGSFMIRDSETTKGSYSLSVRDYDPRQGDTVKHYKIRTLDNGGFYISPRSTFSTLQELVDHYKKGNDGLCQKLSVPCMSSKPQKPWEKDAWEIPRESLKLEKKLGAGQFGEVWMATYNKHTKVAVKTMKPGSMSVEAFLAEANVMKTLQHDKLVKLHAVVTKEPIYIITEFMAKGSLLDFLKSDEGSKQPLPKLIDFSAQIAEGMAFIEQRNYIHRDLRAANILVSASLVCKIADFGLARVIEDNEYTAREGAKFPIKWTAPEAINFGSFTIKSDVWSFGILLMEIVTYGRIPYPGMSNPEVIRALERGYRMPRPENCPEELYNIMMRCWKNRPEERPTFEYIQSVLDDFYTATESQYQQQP
T11 sequence (P11362 22-822, species assumed): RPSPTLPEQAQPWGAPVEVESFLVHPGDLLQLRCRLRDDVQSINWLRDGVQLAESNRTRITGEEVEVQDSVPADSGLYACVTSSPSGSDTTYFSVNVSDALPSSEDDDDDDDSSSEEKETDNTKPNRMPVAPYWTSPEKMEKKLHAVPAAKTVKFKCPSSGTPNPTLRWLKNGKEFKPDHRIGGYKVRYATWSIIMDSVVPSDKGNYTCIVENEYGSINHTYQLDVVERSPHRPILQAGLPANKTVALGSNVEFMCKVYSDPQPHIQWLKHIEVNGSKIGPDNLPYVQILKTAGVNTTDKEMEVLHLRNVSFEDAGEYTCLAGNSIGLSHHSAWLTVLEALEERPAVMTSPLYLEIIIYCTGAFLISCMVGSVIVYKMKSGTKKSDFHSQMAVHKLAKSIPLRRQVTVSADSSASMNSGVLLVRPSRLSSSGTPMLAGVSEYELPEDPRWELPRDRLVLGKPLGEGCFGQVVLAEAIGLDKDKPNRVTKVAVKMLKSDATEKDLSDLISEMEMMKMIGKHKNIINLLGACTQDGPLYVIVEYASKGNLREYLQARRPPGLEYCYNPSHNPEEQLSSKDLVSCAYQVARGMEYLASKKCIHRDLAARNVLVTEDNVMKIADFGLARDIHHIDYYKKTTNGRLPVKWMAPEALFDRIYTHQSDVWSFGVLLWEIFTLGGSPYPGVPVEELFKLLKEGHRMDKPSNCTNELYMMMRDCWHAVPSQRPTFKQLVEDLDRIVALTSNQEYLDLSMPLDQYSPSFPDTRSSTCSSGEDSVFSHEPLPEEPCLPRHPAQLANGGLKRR
T2 sequence (P06239 whole entry, species assumed, the tested form may be a part): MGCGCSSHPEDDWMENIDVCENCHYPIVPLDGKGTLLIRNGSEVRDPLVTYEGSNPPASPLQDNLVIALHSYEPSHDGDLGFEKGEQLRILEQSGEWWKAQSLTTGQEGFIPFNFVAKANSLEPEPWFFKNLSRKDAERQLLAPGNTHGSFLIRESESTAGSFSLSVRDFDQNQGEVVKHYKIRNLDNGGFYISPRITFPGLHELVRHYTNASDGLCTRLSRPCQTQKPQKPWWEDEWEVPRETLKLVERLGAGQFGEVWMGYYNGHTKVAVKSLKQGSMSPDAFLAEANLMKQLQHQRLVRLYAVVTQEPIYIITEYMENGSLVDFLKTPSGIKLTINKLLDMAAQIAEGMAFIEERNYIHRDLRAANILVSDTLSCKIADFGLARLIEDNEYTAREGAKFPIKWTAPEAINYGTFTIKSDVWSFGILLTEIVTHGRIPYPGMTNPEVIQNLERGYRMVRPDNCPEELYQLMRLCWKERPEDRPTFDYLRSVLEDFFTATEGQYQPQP
T17 sequence (P06241 whole entry, species assumed, the tested form may be a part): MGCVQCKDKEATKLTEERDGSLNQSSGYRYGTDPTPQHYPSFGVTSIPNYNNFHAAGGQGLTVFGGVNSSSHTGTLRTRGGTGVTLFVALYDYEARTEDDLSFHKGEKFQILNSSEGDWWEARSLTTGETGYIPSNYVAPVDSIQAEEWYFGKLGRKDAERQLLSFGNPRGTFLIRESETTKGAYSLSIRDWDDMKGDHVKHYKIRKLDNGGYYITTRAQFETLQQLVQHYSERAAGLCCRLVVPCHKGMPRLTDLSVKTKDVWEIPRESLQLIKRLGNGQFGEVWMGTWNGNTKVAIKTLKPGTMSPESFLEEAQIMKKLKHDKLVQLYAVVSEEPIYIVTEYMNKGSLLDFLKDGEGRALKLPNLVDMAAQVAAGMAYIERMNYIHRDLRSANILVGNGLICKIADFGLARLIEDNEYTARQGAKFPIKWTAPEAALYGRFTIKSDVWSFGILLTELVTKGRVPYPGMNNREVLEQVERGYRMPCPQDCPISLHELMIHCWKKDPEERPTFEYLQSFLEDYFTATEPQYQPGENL
T1 sequence (P00533 25-1210, species assumed): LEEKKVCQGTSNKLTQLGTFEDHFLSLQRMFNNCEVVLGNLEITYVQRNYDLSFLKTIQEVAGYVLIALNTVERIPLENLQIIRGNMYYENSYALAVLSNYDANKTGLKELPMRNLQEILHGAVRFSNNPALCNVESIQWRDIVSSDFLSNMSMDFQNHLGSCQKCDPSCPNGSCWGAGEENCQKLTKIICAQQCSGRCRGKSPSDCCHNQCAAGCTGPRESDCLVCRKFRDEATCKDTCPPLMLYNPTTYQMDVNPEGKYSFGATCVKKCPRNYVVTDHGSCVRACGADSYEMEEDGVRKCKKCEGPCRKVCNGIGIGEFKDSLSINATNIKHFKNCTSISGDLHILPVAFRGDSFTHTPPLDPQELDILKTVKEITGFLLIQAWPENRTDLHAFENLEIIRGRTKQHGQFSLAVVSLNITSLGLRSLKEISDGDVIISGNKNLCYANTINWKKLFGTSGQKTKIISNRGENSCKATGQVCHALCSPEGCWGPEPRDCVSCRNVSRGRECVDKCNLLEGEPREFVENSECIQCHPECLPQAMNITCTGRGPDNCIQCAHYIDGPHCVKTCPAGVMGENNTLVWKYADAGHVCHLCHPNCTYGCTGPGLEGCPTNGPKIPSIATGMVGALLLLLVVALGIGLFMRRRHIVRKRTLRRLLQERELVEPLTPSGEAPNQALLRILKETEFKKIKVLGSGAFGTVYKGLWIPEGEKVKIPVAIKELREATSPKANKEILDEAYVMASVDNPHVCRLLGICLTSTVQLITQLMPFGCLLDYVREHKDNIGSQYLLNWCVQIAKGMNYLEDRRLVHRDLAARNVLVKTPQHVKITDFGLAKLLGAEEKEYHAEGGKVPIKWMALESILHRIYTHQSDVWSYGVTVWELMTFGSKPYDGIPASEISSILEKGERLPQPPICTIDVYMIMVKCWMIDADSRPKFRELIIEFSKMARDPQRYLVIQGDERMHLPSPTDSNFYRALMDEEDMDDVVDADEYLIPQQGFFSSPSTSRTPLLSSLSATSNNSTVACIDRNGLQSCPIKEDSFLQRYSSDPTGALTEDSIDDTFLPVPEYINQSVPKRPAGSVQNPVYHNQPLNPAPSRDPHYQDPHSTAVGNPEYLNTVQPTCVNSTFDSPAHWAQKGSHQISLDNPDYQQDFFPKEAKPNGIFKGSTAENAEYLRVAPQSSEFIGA

COc1ccc(Nc2ncnc(Nc3ccc(OC)c(OC)c3)n2)cc1OC [Compound 63]
IC50 (EGFR): > 11.7 µM | IC50 (Lck): > 11.7 µM | IC50 (c-Met): > 11.7 µM | IC50 (Tek): > 11.7 µM | IC50 (Zap-70): > 11.7 µM | IC50 (Itk): > 11.7 µM | IC50 (Kdr): 1.04 to 6.26 µM | IC50 (PDGFRB): 1.04 to 6.26 µM | IC50 (AKT): > 11.7 µM | IC50 (IGFR-1): > 11.7 µM

COc1cc(Nc2ncnc(-n3cccc3)n2)cc(OC)c1OC [Compound 182]
IC50 (EGFR): > 13.7 µM | IC50 (Lck): 7.33 to 10.7 µM | IC50 (FGFR1): > 13.7 µM | IC50 (c-Met): 10.7 to 13.7 µM | IC50 (Zap-70): > 13.7 µM | IC50 (Itk): > 13.7 µM | IC50 (Kdr): < 1.22 µM | IC50 (Flt-1): > 13.7 µM | IC50 (PDGFRB): > 13.7 µM

COc1cc(Nc2ncnc(-n3ccc4cc(O)ccc43)n2)cc(OC)c1OC [Compound 202]
IC50 (EGFR): > 11.4 µM | IC50 (Lck): < 1.02 µM | IC50 (Lyn): < 1.02 µM | IC50 (FGFR1): < 1.02 µM | IC50 (c-Met): 1.02 to 6.1 µM | IC50 (Tek): 6.1 to 8.9 µM | IC50 (Hck-1): > 11.4 µM | IC50 (Zap-70): > 11.4 µM | IC50 (Itk): < 1.02 µM | IC50 (ErbB4): 1.02 to 6.1 µM | IC50 (Kdr): < 1.02 µM | IC50 (Src): < 1.02 µM | IC50 (Flt-1): < 1.02 µM | IC50 (Fyn): < 1.02 µM | IC50 (PDGFRB): < 1.02 µM | IC50 (AKT): 8.9 to 11.4 µM

COc1ccc(Nc2nc3ccccc3n2-c2ncnc(Nc3cc(OC)c(OC)c(OC)c3)n2)cc1 [Compound 397]
IC50 (EGFR): > 9.01 µM | IC50 (Lck): < 0.801 µM | IC50 (Lyn): > 9.01 µM | IC50 (FGFR1): < 0.801 µM | IC50 (c-Met): > 9.01 µM | IC50 (Tek): > 9.01 µM | IC50 (Hck-1): > 9.01 µM | IC50 (Zap-70): > 9.01 µM | IC50 (Itk): > 9.01 µM | IC50 (ErbB4): > 9.01 µM | IC50 (Kdr): < 0.801 µM | IC50 (Src): > 9.01 µM | IC50 (Flt-1): < 0.801 µM | IC50 (Fyn): > 9.01 µM | IC50 (PDGFRB): < 0.801 µM | IC50 (AKT): > 9.01 µM

COc1ccc(Nc2nc3ccccc3n2-c2ncnc(Nc3cc(OC)c(OC)c(OC)c3)n2)cc1OC [Compound 400]
IC50 (EGFR): > 8.5 µM | IC50 (Lck): > 8.5 µM | IC50 (Lyn): > 8.5 µM | IC50 (FGFR1): > 8.5 µM | IC50 (c-Met): > 8.5 µM | IC50 (Tek): > 8.5 µM | IC50 (Hck-1): > 8.5 µM | IC50 (Zap-70): > 8.5 µM | IC50 (Itk): > 8.5 µM | IC50 (ErbB4): > 8.5 µM | IC50 (Kdr): < 0.755 µM | IC50 (Src): > 8.5 µM | IC50 (Flt-1): 0.755 to 4.53 µM | IC50 (Fyn): > 8.5 µM | IC50 (PDGFRB): > 8.5 µM | IC50 (AKT): > 8.5 µM
